# Test results: patent US7563862B2, “Neural regeneration peptides and methods for their use in treatment of brain damage” (Neuren Pharmaceuticals Limited, priority 2001, dated 2009)
# Entries after “also recorded” stand apart in the source; their conditions may differ. Where two headings read alike, the source gives them in different places. Ends that are not written are not given here. Peptide text beside a SMILES is read from it.
# B1: NRP-9: rat ortholog of mouse NRP-7 (protein)
# chain: MLKLNEPKPGVVTSEELTGSGIWSSASGPNCSQHRDGEDGGCGRFINLAGNRTQRGCFPEAFPLLQAEPAEYGGPRSGHRLLRGSRGSEPEARRAQGGQIPSERVLSD
# modifications: RAT
# Assays:
# cerebellar microexplants [1] = experiment: cerebellar microexplant survival assay, 3-NP/glutamate injury; type: cell-based, rat; conditions: for concentration of maximal neuroprotective effect / neuroprotective activity compared to NRP-5 RG: NRP-5 RG analogues
# Protocol: Toxicological and drug administration experiments were designed such that 1/100 parts of toxin and neuroprotective drug were administered simultaneously to the freshly prepared cerebellar microexplants derived from P-4 or P8 rats. Glutamate was prepared as a 50 mM stock solution in MilliQ water while 50 mM 3-nitropropionic acid was pH-adjusted (pH 6.8-7.2) in MilliQ water. The concentrations of the oxidative stress inducing toxin, 3-nitropropionic acid (3-NP), and the excitotoxin, glutamate, in the assay were 0.5 mM each. Lyophilized peptides were reconstituted in PBS or 100 μg/ml human transferrin as a 10 μM stock solution. Subsequently, serial dilutions were made. Cerebellar microexplants were cultivated for 48-72 hours at 34° C., 5% CO2 in air and 100% humidity before they were fixed by increasing amounts of paraformaldehyde (0.4%, 1.2%, 3% and 4%—each treatment 2-3 min).
# For statistical analysis of survival, four fields (each field having an area of 0.65 mm^2) of each fixed cerebellar culture with the highest cell densities were chosen, and cells displaying neurite outgrowth were counted. Statistical significance was measured by Student's t-test.
# (§1) Laminated cerebellar cortex was extracted from P3/4, P7/8 rat pups and triturated through gauze having a 125 μm pore size to obtain uniformly sized microexplants. After centrifugation for 3 minutes at 61 g and the pellet was resuspended in StartV medium (Biochrom) and the suspension seeded on poly-D-lysine coated coverslips in 6-well plates and incubated for 3 hrs to allow adherence, before 1 ml StartV per well was added. As described previously, glutamate/3-NP and NRP were also added. The explants are cultivated at 34° C. at 5% CO2 and 100% humidity for 48-72 hrs. BrdU was administered at start of cultivation for proliferation rate measurements and cells are counted per microscopic field after 48-72 hrs.
# Cerebellar Microexplants were prepared as described in Example 9 with the addition of SDF-1 as described, in addition to glutamate/3-NP, and NRP.
# Cerebellar microexplants were prepared as described in Example 9 with the addition of SDF-1, Wortmannin and PD98059 (both Calbiochem), as described, in addition to glutamate/3-NP, and NRP.
# mouse neural stem cells = experiment: haptotactic migration assay, mouse neural stem cells; type: cell-based
# Protocol: NRPs were tested for migration-inducing/chemoattractive activity on mouse neural stem cells, EGF-dependent immortalized mouse neural stem cell line MEB5 and wild-type PC-12 cells in a haptotactic migration assay as described below.
# Initial NRP Coating. Control wells of Transwell plates (Coming) with 12 μm pore size were coated in 1.5 ml of the BSA/PBS vehicle. Remaining plates were coated using various concentrations of NRPs ranging between 1-100 ng/ml (prepared in PBS containing 10 ug/ml BSA). The plates were then incubated at 37° C. for 1 hr to coat. Wells were then rinsed 2× with 1 ml sterile PBS.
# Laminin ([…]) for MEB-5 cells, PDL (50 μg/ml)+Matrigel for mouse primary stem cells and fibronectin (25 ug/ml)+matrigel for PC-12 cells were used as extracellular matrix (ECM) coating for the cells. All ECM compounds were diluted in PBS. 1.5 ml of the ECM per well was incubated for 2 hrs at room temperature. The wells were then rinsed once with Iml serum-free media (e.g. NB/B27) followed by 1 ml PBS wash.
# A 5 ug/mL PDL/PLL mixture (in PBS) was used to coat inserts. Subsequently the inserts were rinsed with MilliQ water.
# Transferring to Media and Cell Seeding: Appropriate medium (MEB-5 cells: DMEM-high glucose+N2 (growth medium supplement from Invitrogen)+10 ng/biotin+2 mM L-glutamine, primary stem cells: NSA-medium from Euroclone and for PC-12 cells: NB/B27 medium) was transferred into the 12-well plates. […] Plates were fixed at 1-2 days in vitro (DIV).
# Fixation: Inserts were discarded and wells fixed in successive dilutions of PFA (0.4, 1.2, 3 and 4%) for 3-5min in each dilution. […] The wells were rinsed and stored in PBS until counting.
# A haptotactic migration assay was performed according to the description of Example 10 using rat NRP-9SD (SEQ ID NO:34) (4 nM) and mouse NRP-7SW (SEQ ID NO:24) (0.4 nM) as attractants in a Boyden chamber
# cerebellar microexplants [2] = experiment: cerebellar microexplant proliferation assay under injury (BrdU-positive nuclei); type: cell-based, rat
# Protocol: Using the toxins described above, cerebellar explants were exposed for 24 hours, at the beginning of culturing to dilutions of NRP and 0.1 μM BrdU. Subsequently, 80% of the medium was changed without addition of new toxins and NRPs. The cerebellar cultures were fixed as described above after 3 days in vitro. The detection of the incorporated BrdU level was performed as described previously. Under these conditions, over 99% of the cells in the cerebellar population were neurons. Therefore any increase in cell number after NRP administration was most likely due to neuronal cell proliferation.
# For statistical analysis of proliferation four fields (each field having an area of 0.65 mm^2) of each fixed cerebellar culture displaying highest density of BrdU-positive nuclei were chosen, and BrdU-positive nuclei were counted. Statistical significance was measured by Student's t-test.
# as §1
# [3] = system: OTCs of rat embryonic forebrain; experiment: embryonic forebrain OTC migration assay (medial ganglionic eminence to cortical anlage); type: cell-based
# Protocol: OTCs of rat embryonic forebrain were prepared as described. Briefly, pregnant rats at E17 gestation were sacrificed, the fetuses rapidly removed. Coronal slices of the forebrain were cut at 400 μm thickness and placed onto millicell PICM ORG50 membranes (Millipore) in 3 cm Petri dishes containing 1 ml of DMEMI/F12, 6.5 mg/ml glucose, 0.1 mM glutamine and 10% FCS for 34 hrs. Afterwards the medium was exchanged to 1 ml Neurobasal/B27, 6.5 mg/ml glucose, 0.1 mM glutamine, to which 10 μl PBS, NRP, or SDF-1 were added for the indicated concentrations and a small DiI (1,1′-dioctodecycyl-3,3,3′3-tetramethylindocarbocyanine) crystal of uniform size was placed in the medial ganglionic eminence (n=10-15) under a stereomicroscope. After 24 hrs cultivation the total number or migrated neurons dispersed in the ganglionic eminence and cortex were counted under an inverted fluorescent microscope.
# neural stem cells = experiment: neural stem cell differentiation assay, neuronal differentiation and axonal outgrowth; type: cell-based, mouse; conditions: together with BrdU for 24 hrs
# Protocol: Neural stem cells were derived from E15 C3H mice forebrain and cultured as neurospheres in the presence of 20 ng/ml EGF and 10 ng/ml bFGF as described in Gritti et al. (2001). Briefly, timed pregnant mice were sacrificed and the embryos removed. Under sterile conditions the brains were removed and the forebrains dissected. The tissue was dissociated by trituration and pelleted by 75 g centrifugation for 10 minutes and the cells seeded in non-coated tissue culture flasks in NSA medium with growth factors. For passaging neurospheres were triturated and seeded as single cells.
# Upon reaching a sufficient size, neurospheres were dissociated by trituration and plated at a density of 200,000 cells per well on laminin-coated 13 mm diameter coverslips that had been placed in Nunc 24 well plates. The plating medium was a 1:1 mixture of DMEM/F12 supplemented with N2 and Neurobasal supplemented with B27 and 2 mM glutamine. To enhance survival after plating the medium contained 2 ng/ml bFGF. After 24 h the medium was replaced with a neuronal differentiation-promoting medium (1:3 mixture of DMEM/F12 supplemented with N2 and Neurobasal supplemented with B27 and 2 mM glutamine) and except for the controls the test compound or IGF-1 was added simultaneously. The medium with fresh compound was exchanged every other day. Seven days after plating the differentiating cells were incubated for 20 minutes in differentiation medium containing 100 ng/ml Syto21 to label the nuclei of viable cells. Subsequently, they were fixed with 4% paraformaldehyde and immunostained with a mouse anti-βIII tubulin antibody and a goat anti-mouse Cy3-coupled secondary antibody.
# After staining the coverslips were removed from the tissue culture plate and mounted on […], using Immunofluore fluorescent mounting medium. To analyse the percentage of neurons of total cells, with a Zeiss axiophot microscope, equipped with Axoivision software, at 20× magnification images of two random fields per well were taken in the red (tubulin stained neurons) and green (Syto21 stained nuclei) fluorescent channel. Neurons and nuclei per field were counted and the neuronal percentage of total cell number determined.
molecule,measurement,setting,value
CC(C)C[C@H](NC(=O)[C@H](CS)NC(=O)[C@@H]1CCCN1C(=O)[C@H](Cc1c[nH]cn1)NC(=O)[C@H](CC(C)C)NC(=O)[C@H](CO)NC(=O)CNC(=O)[C@@H]1CCCN1C(=O)[C@H](C)NC(=O)[C@H](CCCNC(=N)N)NC(=O)[C@H](CCCNC(=N)N)NC(=O)[C@H](C)NC(=O)[C@H](CCC(=O)O)NC(=O)[C@@H]1CCCN1C(=O)[C@H](CC(=O)O)NC(=O)[C@@H](N)CCCCN)C(=O)N[C@@H](C)C(=O)N[C@@H](C)C(=O)N[C@@H](CO)C(=O)N[C@@H](CS)C(=O)N[C@@H](CO)C(=O)N[C@@H](C)C(=O)N[C@@H](C)C(=O)NCC(N)=O [NRP-2 segment KG] (H-KDPEARRAPGSLHPCLAASCSAAG-NH2),cytotoxicity,cerebellar microexplants [1],no cytotoxicity
"COc1cccc(-c2cc(=O)c3ccccc3o2)c1N [PD98509, reference compound]",effect of inhibitor alone under vehicle and injury conditions,cerebellar microexplants [1],only modest toxicity
same,effect of inhibitor / neutralizing antibody on NRP neuroprotective activity,"cerebellar microexplants [1]; with NRP-9 SD, antibody 1 μg/ml 72 hours, wortmannin 100 nM",abolished the neuroprotective activity of NRP; also recorded: completely blocked neuroprotective activity
same,effect of inhibitor on NRP-induced increase in migrating NSC,"mouse neural stem cells; NRP-9 SD (4 nM), 15 μM PD98509",almost completely blocked; also recorded: inhibited
"COC[C@H]1OC(=O)c2coc3c2[C@@]1(C)C1=C(C3=O)[C@@H]2CCC(=O)[C@@]2(C)C[C@H]1OC(C)=O [wortmannin, reference compound]",effect of inhibitor alone under vehicle and injury conditions,cerebellar microexplants [1]; without NRP,no significant effect after vehicle and injury conditions without the NRP
"AAARRDAPGRAGG-NH2 [SEQ ID NO:45, NRP-5 RG analogue]",concentration of maximal neuroprotective effect,cerebellar microexplants [1],about 1 pM
same,neuroprotective activity compared to NRP-5 RG,cerebellar microexplants [1],even higher neuroprotective activity than the original NRP-5 RG
"GTPGRAEAGGQ-NH2 [NRP-4 segment GQ, 11-mer of NRP-4]",concentration range of maximal biological activity for survival,"cerebellar microexplants [1]; NRP simultaneous with 3-NP/glutamate, 48 hrs",10-100 nM
same,survival rates after severe injury,cerebellar microexplants [1]; nanomolar concentrations,50%
same,concentrations with statistically significant effects,"cerebellar microexplants [1]; simultaneous, 48 hrs, units in value","10 pM, 100 pM, 10 nM and 100 nM"
same,up regulation in the proliferation rate compared to injured cerebellar microexplants,cerebellar microexplants [2]; 10 nM,132.2%
same,concentration at which proliferation induction was observed,"cerebellar microexplants [2]; 3-NP/glutamate, NRP and BrdU 24 hrs, counted after 72 hrs",10 nM
"REAAADAPGRAGG-NH2 [SEQ ID NO:44, NRP-5 RG analogue]",concentration of maximal neuroprotective effect,cerebellar microexplants [1],about 1 pM
same,neuroprotective activity compared to NRP-5 RG,cerebellar microexplants [1],did not significantly change in the activity profile
"REGRRDAAAAAGG-NH2 [SEQ ID NO:47, NRP-5 RG analogue, PGR-domain substituted]",neuroprotective activity compared to NRP-5 RG,cerebellar microexplants [1],some neuroprotective effect at certain concentrations
same,concentrations with some neuroprotective effect,cerebellar microexplants [1]; units in value,"0.1 pM, 10 pM and 100 nM"
"REGRRDAPGRAAA-NH2 [SEQ ID NO:46, NRP-5 RG analogue, C-terminal GG-domain substituted]",only concentration with statistically significant effect,cerebellar microexplants [1],100 nM
same,neuroprotective activity compared to NRP-5 RG,cerebellar microexplants [1],had less effect than NRP-5 RP
"SDF-1: chemokine stromal-derived factor, 63 amino acid long mature human SDF-1 [reference compound]",neuroprotection compared to NRP,cerebellar microexplants [1],narrow dose range of efficacy; also recorded: only a limited neuroprotective effect
same,neuroprotection,"cerebellar microexplants [1]; 10 nM, 0.5 mM 3-NP/glutamate 48 hrs",less than 30%
same,number of cells attracted,mouse neural stem cells; 100 nM coating,"attracted a similar number of cells, as did the 0.4 nM mouse NRP-7SW"
same,potency compared to NRP,[3],far less potent than NRP
"SEPEARRAQGGQIPSERVLSD-NH2 [NRP-9 segment SD, 21-mer of rat NRP-9]",concentration range of maximal neuronal survival activity,"cerebellar microexplants [1]; 0.5 mM 3-NP/glutamate, 48 hrs",0.1 to 10 pM
same,cells attracted compared to control condition,mouse neural stem cells; 4 nM,Nearly four times
B1,proliferation rate during differentiation of NSC,neural stem cells,an increase in the proliferation rate
